Like-named read-outs stand apart in the source and are kept apart here.
Legend:
MDA-MB-231 cells = assay: Cell viability assay, antiproliferative activity; type: cell-based; details: Homo sapiens; MDA-MB-231, 72 h; 10e and 11n results from NCI; read-out: Antiproliferative Activity IC50 MDA-MB-231, 72 h
From the text: Selected β-lactam compounds were next evaluated in the triple negative cell line MDA-MB-231 (Table 4). […] These cancers are difficult to treat since they are generally not responsive to hormone therapies such as the selective oestrogen receptor modulator (SERM) tamoxifen, or aromatase inhibitors such as anastrozole, or to the monoclonal antibody Herceptin, which targets the HER2 receptor. There are fewer treatment options available for TNBC compared with ER+, PR+ and HER2+ breast cancers and the prognosis is poorer. […]. The human breast carcinoma cell line MCF-7 was purchased from the European Collection of Animal Cell Cultures (ECACC). Triple negative breast cancer Hs578T cells and its invasive variant Hs578Ts(i)8 were a kind gift from Dr. Susan McDonnell, School of Chemical and Bioprocess Engineering, University College Dublin. U266 cells were a gift from Dr. Tony McElligott, School of Medicine, St James’s Hospital, Trinity College Dublin. HT-29 cells were purchased from the European Collection of Cell Cultures (originating from a human adenocarcinoma of the colon). The human breast carcinoma cell line MDA-MB-231 and the HL-60 cells derived from a patient with acute myeloid leukaemia were both obtained from ECACC (Salisbury, UK). The SW-480 cells were a kind gift from Dr. Brian Flood, School of Biochemistry and Immunology, Trinity College Dublin. HEK-293T (normal epithelial embryonic kidney cells) were cultured in Dulbecco’s Modified Eagle’s Medium (DMEM) with GlutaMAXTM-I in the absence of non-essential amino acids. Human breast cancer MCF-7 cells and multiple myeloma U266 cells were cultured in Minimum Essential Media (MEM) with GlutaMAX™-I, supplemented with 1% (v/v) non-essential amino acids, 10% 2(v/v) foetal bovine serum (FBS) and 1% (v/v) penicillin/streptomycin 5000 U/mL. MDA-MB-231 cells were maintained in DMEM supplemented with 10% (v/v) foetal bovine serum, 2 mM L-glutamine and 100 μg/mL penicillin/streptomycin (complete medium). Colon cancer HT-29 and SW-480 and triple negative breast cancer Hs578T and its invasive variant Hs578T8i were cultured in DMEM with GlutaMAX™-I, with the same supplement in the absence of non-essential amino acids. Leukaemia HL-60 cancer cells were cultured in Roswell Park Memorial Institute Media (RPMI-1640) with GlutaMAX™-I, supplemented with 10% FCS media, and 100 μg/mL penicillin/streptomycin as above. Cell numbers were monitored using a haemocytometer. Cell culture flasks were incubated in a humidified incubator (5% CO2/95% air) at 37 °C. All cell lines were sub-cultured three times per week with trypsinisation using TrypLE Express (1X) required for adherent cell lines.
(§1) . All stock solutions and serial dilution in ethanol/DMSO were stored at -20 °C. All cells were seeded at a density of 2.5 × 10^4 cells/mL in a 96-well plate (200 μL per well). The cells were incubated in a […] atmosphere at 37 °C for 24 h, then treated with test compound (2 μL of stock solutions per 200-microlitre well) in ethanol to obtain a concentration range of 1 nM–200 μM for the study. The plates were then re-incubated for a further 72 h. Control wells contained an equivalent volume of the vehicle ethanol or DMSO (1% v/v). MTT cell viability assay: The culture medium was removed, and the cells were washed with phosphate buffered saline (PBS, […]). MTT (dissolved in PBS, […]) was added to obtain a final concentration of MTT (1 mg/mL). Cells were incubated at 37 °C for 3 h in the dark. Solubilisation was commenced by the addition of DMSO ([…]) and the cells were maintained at 20 °C in the dark for 20 min before reading the absorbance to ensure complete colour diffusion. The absorbance value of control cells (no added compound) was set to 100% cell viability and absorbance versus cell density per well was determined to assess cell viability using Graph-Pad Prism software. […]

MCF-7 cells [1] = assay: Lactate dehydrogenase (LDH) assay for cytotoxicity; type: cell-based; details: Homo sapiens, MCF7; MCF-7, compound concentration 10 μM, 24 h; read-out: Lactate Dehydrogenase assay: % cell lysis (cell death)
Protocol: The toxicity and selectivity of 10n towards normal cells was investigated in the non-tumourigenic cell line HEK-293T (normal human epithelial embryonic kidney cells). […] The cytotoxic effect of selected 3-chloro-β-lactams 10e, 10f, 10i, 10n and 3,3-dichloro-β-lactams 11e and 11n in MCF-7 cells was initially determined using the lactate dehydrogenase (LDH) assay.
The cytotoxicity of selected compounds was determined using the CytoTox 96 non-radioactive cytotoxicity assay (Promega Corporation, Madison, WI, USA). Briefly, MCF-7 cells were seeded in a 96-well plate (200 μL per well), at a density of 2.5 × 10^4 cells/mL, and incubated for 24 h. The cells were then treated with selected β-lactam compounds as described above for the cell viability assay. […] Supernatant (50 μL) was removed from each well to a 96-well plate. Reconstituted ‘CytoTox 96® Reagent (50 μL) was added to each well and the plate was placed in the dark at 20 °C for 30 min. ‘Stop solution’ (50 μL) was added to each well and the samples were analysed at 490 nm using a Dynatech MR5000 plate reader. The percentage cell death at 10 μM was calculated.

MCF-7 cells [2] = details: MCF-7, 72 h; previously reported compounds, footnote g; cited from earlier work
MCF-7 cells [3] = assay: Cell viability assay (MTT/AlamarBlue), antiproliferative activity; type: cell-based, human
From the text: […]. The introduction of the halogen substituent at C-3 was examined in an effort to investigate the effect on the activity of this substituent, and subsequently optimising the cytotoxic effects against MCF-7 human breast cancer cells.
(§2) The human breast carcinoma cell line MCF-7 was purchased from the European Collection of Animal Cell Cultures (ECACC). Triple negative breast cancer Hs578T cells and its invasive variant Hs578Ts(i)8 were a kind gift from Dr. Susan McDonnell, School of Chemical and Bioprocess Engineering, University College Dublin. U266 cells were a gift from Dr. Tony McElligott, School of Medicine, St James’s Hospital, Trinity College Dublin. HT-29 cells were purchased from the European Collection of Cell Cultures (originating from a human adenocarcinoma of the colon). The human breast carcinoma cell line MDA-MB-231 and the HL-60 cells derived from a patient with acute myeloid leukaemia were both obtained from ECACC (Salisbury, UK). The SW-480 cells were a kind gift from Dr. Brian Flood, School of Biochemistry and Immunology, Trinity College Dublin. HEK-293T (normal epithelial embryonic kidney cells) were cultured in Dulbecco’s Modified Eagle’s Medium (DMEM) with GlutaMAXTM-I in the absence of non-essential amino acids. Human breast cancer MCF-7 cells and multiple myeloma U266 cells were cultured in Minimum Essential Media (MEM) with GlutaMAX™-I, supplemented with 1% (v/v) non-essential amino acids, 10% 2(v/v) foetal bovine serum (FBS) and 1% (v/v) penicillin/streptomycin 5000 U/mL. MDA-MB-231 cells were maintained in DMEM supplemented with 10% (v/v) foetal bovine serum, 2 mM L-glutamine and 100 μg/mL penicillin/streptomycin (complete medium). Colon cancer HT-29 and SW-480 and triple negative breast cancer Hs578T and its invasive variant Hs578T8i were cultured in DMEM with GlutaMAX™-I, with the same supplement in the absence of non-essential amino acids. Leukaemia HL-60 cancer cells were cultured in Roswell Park Memorial Institute Media (RPMI-1640) with GlutaMAX™-I, supplemented with 10% FCS media, and 100 μg/mL penicillin/streptomycin as above. Cell numbers were monitored using a haemocytometer. Cell culture flasks were incubated in a humidified incubator (5% CO2/95% air) at 37 °C. All cell lines were sub-cultured three times per week with trypsinisation using TrypLE Express (1X) required for adherent cell lines.
as §1, with “software. AlamarBlue cell viability assay: Cells were seeded in 96-well plates (e.g., MCF-7, 5 × 10^3 cells/well) and (HT-29 cells, 1 × 10^3 cells/well) and (HL-60 cells, 1 × 10^4 cells/well) with a total volume per well of 200 µL. After 24 h, cells were treated in triplicate with serial dilutions of CA-4 or β-lactam analogues (0.001–100 μM), medium alone or vehicle (1% ethanol (v/v)).” for “software.”

SW480 cells = assay: Cell viability assay, antiproliferative activity; type: cell-based, human; details: SW480, 10 μM
Protocol: […]. The corresponding values for 10e in these cell lines were 161 nM (HL-60), 55 nM (SW480) and 135 nM (HT-29). […] […]. SW480 colon cells expressed low levels of the UDP-glucuronosyltransferase (UGT) protein compared to expression levels in HT-29 cells. […] […].
as §2
as §1, with “software. AlamarBlue cell viability assay: Cells were seeded in 96-well plates (e.g., MCF-7, 5 × 10^3 cells/well) and (HT-29 cells, 1 × 10^3 cells/well) and (HL-60 cells, 1 × 10^4 cells/well) with a total volume per well of 200 µL. After 24 h, cells were treated in triplicate with serial dilutions of CA-4 or β-lactam analogues (0.001–100 μM), medium alone or vehicle (1% ethanol (v/v)).” for “software.”

[4] = HPLC stability study in phosphate buffers; type: physicochemical; details: phosphate buffer
Protocol: HPLC stability studies at three different pH systems were performed on a representative compound 16a to determine the stability at acidic pH 4, pH 7.4 and basic pH 9 (acid pH found in the stomach, basic found in the intestine and pH 7.4 in the plasma).
A stability study for compound 16a was performed by analytical HPLC using a Symmetry® column (C18, […], 4.6 × 150 mm), a Waters 2487 Dual Wavelength Absorbance detector, a Waters 1525 binary HPLC pump and a Waters 717 plus Autosampler (Waters Corporation, Milford, MA, USA). Samples were detected at λ 254 nm using acetonitrile (70%)/water (30%) as the mobile phase over 15 min and a flow rate of 1 mL/min. A stock solution of the compound was prepared using 10 mg of compound 16a in 10 mL of mobile phase (1 mg/mL). A calibration curve was prepared using a solution of 0.5, 0.25, 0.125, 0.0625, 0.03125, 0.015625 and 0.0078 mg/mL. (i) Stability of 16a in phosphate buffers: Phosphate buffers at pH values 4, 7.4 and 9 were prepared according to the British Pharmacopoeia 2020. A total of 300 µL of stock solution (1 mg/mL ACN) for 16a was added to a vial containing 9.7 mL of buffer, mixed and pre-heated to 37°C. A total of 1 mL of the solution was added to the HPLC glass vial and 10 µL was injected, followed by hourly injections for a 24-h period. Samples were withdrawn and analysed at time intervals of t = 0 min, 5 min, 30 min, 60 min and hourly for 24 h. The analysis was performed in triplicate. (ii) Thermal stability: 16a (1 mg) was placed in a vial (for the solution, 1 mL of stock solution was used) at 60 °C for 4 h on a heating block. The sample was then cooled, diluted with ACN and analysed using HPLC. (iii) Photostability study: A solution of compound 16a (1 mL of the stock solution) was placed in a vial and exposed to UV light for 4 h. The sample was directly analysed using HPLC. […] Once neutralised, the samples were analysed using HPLC. […] Once neutralised, the samples were analysed using HPLC. […] A sample from the vial was taken every hour over 4 h and analysed using HPLC.

IC50 (MCF-7 cells [3]; Homo sapiens, MCF7, 72 h, MCF-7, 72 h, read-out: IC50 (MCF-7, 72 h)) [nM]	half-life at 0.03 mg/mL ([4]; buffer pH 4, 37°C) [h]	half-life at 0.03 mg/mL ([4]; buffer pH 7.4, 37°C) [h]	half-life at 0.03 mg/mL ([4]; buffer pH 9, 37°C) [h]	Structure (SMILES)	IC50 (MDA-MB-231 cells) [nM]	cytotoxicity at 10 µM (MCF-7 cells [1]) [%]	IC50 (MCF-7 cells [2]) [nM]	fold decrease in activity vs corresponding 3-chloro compound 10e (MCF-7 cells [3]; MCF-7 IC50 ratio) [fold]	SW480 inhibition of cell viability (SW480 cells) [%]
				CCOc1ccc([C@H]2[C@H](Cl)C(=O)N2c2cc(OC)c(OC)c(OC)c2)cc1 (relative stereo) [Compound 10f]	78 ± 8	4	130 ± 17		
579 ± 30	18	22	20	COc1ccc(C2C(Br)C(=O)N2c2cc(OC)c(OC)c(OC)c2)cc1 (stereo not drawn) [Compound 16a, 3-Bromo-4-(4-methoxyphenyl)-1-(3,4,5-trimethoxyphenyl)azetidin-2-one]				17	52
				COc1ccc(C2N(c3cc(OC)c(OC)c(OC)c3)C(=O)C2(Cl)Cl)cc1 (stereo not drawn) [Compound 11e]	297 ± 40	10	119 ± 12		

— PMC8624998, “Synthesis and Antiproliferative Evaluation of 3-Chloroazetidin-2-ones with Antimitotic Activity: Heterocyclic Bridged Analogues of Combretastatin A-4” (Pharmaceuticals, 2021)
